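Compound exposure: 48 hours, 5 concentrations, 96-well plates. GI50: concentration for 50% inhibition of growth. At the TGI there is no net growth.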
Legend:
Experiment in all cases: DTP human tumour cell line panel, 48 h
[1] = test system: SK-MEL-5 melanoma
[2] = test system: HOP-62 NSCLC
[3] = test system: OVCAR-8 ovarian
[4] = test system: M14 melanoma
[5] = test system: 786-0 renal
[6] = test system: CCRF-CEM leukemia
[7] = test system: SK-MEL-28 melanoma
[8] = test system: OVCAR-3 ovarian
[9] = test system: NCI-H460 lung
[10] = test system: OVCAR-5 ovarian

SMILES	GI50 [1] [µM]	TGI [1] [µM]	GI50 [2] [µM]	TGI [2] [µM]	GI50 [3] [µM]	TGI [3] [µM]	GI50 [4] [µM]	TGI [4] [µM]	GI50 [5] [µM]	TGI [5] [µM]	GI50 [6] [µM]	TGI [6] [µM]	GI50 [7] [µM]	TGI [7] [µM]	GI50 [8] [µM]	TGI [8] [µM]	GI50 [9] [µM]	TGI [9] [µM]	GI50 [10] [µM]	TGI [10] [µM]
COc1ccc(Nc2ccnc(N3CCN(c4ccnc5cc(Cl)ccc45)CC3)n2)cc1	0.579	1.87	1.27	> 29	1.68	> 21.7	0.768	3.28	1.4	6.87	1.74	> 34.2	1.21	4.89	0.729	15.4	0.837	4.68	2.15	> 100
O=C(O)c1cc(CCc2cc(O)ccc2O)ccc1O	–	> 100	–	> 100	–	> 100	–	> 100	–	> 100	–	71.4	–	> 100	–	> 100	–	> 100	–	> 100
c1cc(N2CCN(c3ccc(C4=NCCCN4)cc3)CC2)ccc1C1=NCCCN1	21.2	> 100	> 100	> 100	> 95.7	> 100	> 100	> 100	> 100	> 100	> 61.4	> 100	> 100	> 100	> 32.2	> 100	> 58.6	> 100	> 87.8	> 100
CCCCNc1nc(NC2OCC(OC(C)=O)C(OC(C)=O)C2OC(C)=O)c(N=O)c(=O)n1C (centres undefined)	–	> 10	–	> 10	–	> 10	–	> 10	–	> 10	–	> 10	–	> 10	–	> 10	–	> 10	–	> 10
COc1cccc(Oc2ccccc2NC(=O)CNC(=O)c2cccc3ccccc23)c1	0.216	3.65	0.302	> 25	0.684	> 25	0.157	> 25	0.183	> 25	0.36	> 25	4.35	> 25	0.0999	1.25	0.298	4.53	1.13	> 25
C1CSCCSCCCSCCSCCCSCCSCCCSCCSC1	–	> 100	–	> 100	–	> 100	–	> 100	–	> 100	–	> 100	–	> 100	–	> 100	–	> 100	–	> 100
CC(C)C[C@H](NC(=O)CCn1ccc2ccccc2c1=O)B(O)O	4.3	19	4.51	22.1	15.3	> 100	4.23	> 100	4.76	> 100	2.02	25.4	3.27	> 100	1.97	5.66	13	56.2	18.8	> 100
C=CCC1(C)CCCN(Cc2ccccc2)C1=O (centres undefined)	–	1.48	–	> 10	–	> 10	–	> 10	–	> 10	–	> 10	–	> 10	–	> 10	–	> 10	–	> 10
O=C(CN1N=C(c2ccc(F)cc2)CCC1=O)Nc1nc2ccccc2s1	> 93.2	> 100	–	> 100	0.788	4.33	33.2	> 100	0.235	0.607	0.249	0.665	> 100	> 100	1.99	4.16	> 51.5	> 100	3.39	> 92.1
CC1c2ccccc2CCN1c1ccc(CO)c(Cl)c1 (centres undefined)	13.8	27.1	1.67	25.3	5.77	52.6	22.5	58.2	16.7	43.1	30.9	> 100	17.1	63.7	0.171	3.36	0.0864	3.3	0.0427	0.187
COc1cc(C(=O)c2cc(C)c3[nH]c4ccc(O)cc4c3c2C)cc(OC)c1OC	0.0162	0.0637	0.0297	> 70.9	0.0317	> 100	0.0185	> 100	< 0.0184	> 22.2	0.0254	> 100	3.66	> 100	< 0.01	2.17	< 0.0185	> 100	0.0511	> 100
